These results are taken from ChEMBL document CHEMBL1201862, “PubChem BioAssay data set” (2004).

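Protocol summary: plate cells (96-well), add compound at 5 concentrations, incubate 48 h, interpolate endpoints linearly. GI50: concentration for 50% inhibition of growth.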 Calls of active or inactive are those of the source. Rule as the data show it: active = GI50 up to about 1.1 µM and inactive = higher.

Some test systems named below: HCC 2998; SK-MEL-2; MDA-MB-231; HOP-92; PC-3; K562; T47D; A549; SK-MEL-28; NCI-H23; MDA-MB-435; SK-OV-3; 786-0; EKVX; IGROV-1; HCT-15; OVCAR-4; Hs-578T; UACC-257.
Assay in all cases: NCI tumour cell line growth inhibition, 48 h

`CC1(C)C(C#N)=[N+]([O-])C(C)(C)N1O`: the GI50 in the assay on HCC 2998, in the assay with SK-MEL-2, in the assay with MDA-MB-231, in the assay with HOP-92, in the assay with PC-3 and in the assay on K562 was > 100 µM (inactive) in each case. The GI50 with T47D was > 100 µM (inactive); in the assay with A549, > 100 µM (inactive); in the assay on SK-MEL-28, > 100 µM (inactive); in the assay with NCI-H23, > 100 µM (inactive); with MDA-MB-435, 37.7 µM (inactive); in the assay with SK-OV-3, > 100 µM (inactive). For the same compound, the GI50 with 786-0 was > 100 µM (inactive); in the assay with EKVX, > 100 µM (inactive); with IGROV-1, > 100 µM (inactive); with HCT-15, above 100 µM; with OVCAR-4, > 100 µM (inactive); with Hs-578T it was > 100 µM (inactive). In the assay with UACC-257, the GI50 is > 100 µM (inactive).
Consider `CC(C)(C)OC(=O)CCCCCNC(=O)CCCCCNC(=O)CCC(CN(CC(=O)OCc1ccccc1)CC(=O)OCc1ccccc1)N(CC(=O)OCc1ccccc1)CC(=O)OCc1ccccc1` (stereo not given), for which the GI50 was > 100 µM (inactive) with HCC 2998; > 100 µM (inactive) in the assay on SK-MEL-2; > 100 µM (inactive) with MDA-MB-231; 32.9 µM (inactive) in the assay with HOP-92; > 100 µM (inactive) in the assay on PC-3; 25.2 µM (inactive) with K562. Moreover, the GI50 was > 100 µM (inactive) in the assay on T47D; > 100 µM (inactive) with A549; > 100 µM (inactive) in the assay with SK-MEL-28; 68.1 µM (inactive) in the assay with NCI-H23; > 100 µM (inactive) in the assay with MDA-MB-435; > 100 µM (inactive) in the assay on SK-OV-3. Moreover, the GI50 is > 100 µM (inactive) in the assay on 786-0; > 100 µM (inactive) with EKVX; > 100 µM (inactive) in the assay on IGROV-1; above 100 µM in the assay with HCT-15; > 100 µM (inactive) in the assay on OVCAR-4; > 100 µM (inactive) in the assay with Hs-578T. Further, the GI50 with UACC-257 is > 100 µM (inactive).
Regarding `O=c1[nH]c(C23CC4CC(CC(C4)C2)C3)cc2c1c(=O)oc1ccccc12`, the GI50 with HCC 2998 was 5.31 µM (inactive); with SK-MEL-2, 13.8 µM (inactive); in the assay on MDA-MB-231, 3.4 µM (inactive); with HOP-92, 1.04 µM (active); with PC-3, 3.27 µM (inactive); with K562 it was 4.07 µM (inactive). In addition, the GI50 is 8.89 µM (inactive) in the assay on T47D; 2.83 µM (inactive) in the assay with A549; 5.86 µM (inactive) with SK-MEL-28; 9.57 µM (inactive) in the assay on NCI-H23; 13.4 µM (inactive) in the assay with MDA-MB-435; 3.25 µM (inactive) in the assay with SK-OV-3. Further, the GI50 in the assay with 786-0 was 1.61 µM (inactive); with EKVX, 0.32 µM (active); in the assay on IGROV-1, 2.32 µM (inactive); in the assay on HCT-15 it was 13.8 µM; with OVCAR-4, 3.15 µM (inactive); in the assay with Hs-578T, 1.1 µM (active). For the same compound, in the assay with UACC-257, the GI50 is 19.8 µM (inactive).
For `Cc1cc(N(CCC#N)CCC#N)ccc1C(=N/NC(=O)c1cc(Cl)ccc1O)/N=N/c1cccc([N+](=O)[O-])c1`, the GI50 is 28.8 µM (inactive) in the assay on HCC 2998; 21.7 µM (inactive) in the assay on SK-MEL-2; 14.5 µM (inactive) in the assay with MDA-MB-231; 38.2 µM (inactive) in the assay with HOP-92; 22.1 µM (inactive) in the assay with PC-3; 22 µM (inactive) in the assay on K562. The GI50 with T47D was 19.4 µM (inactive); in the assay on A549, 28 µM (inactive); with SK-MEL-28, 28.9 µM (inactive); in the assay with NCI-H23 it was 22.6 µM (inactive); in the assay on MDA-MB-435, 35.4 µM (inactive); with SK-OV-3, 34 µM (inactive). For the same compound, the GI50 in the assay with 786-0 is 29 µM (inactive); in the assay on EKVX it was 25.1 µM (inactive); in the assay on IGROV-1, 11.3 µM (inactive); in the assay on HCT-15 it was 25.5 µM; in the assay on OVCAR-4, 20.4 µM (inactive); in the assay on Hs-578T, 38.9 µM (inactive). Moreover, the GI50 in the assay with UACC-257 is 31.2 µM (inactive).
Regarding `C=C1C(=O)OC2CC(C)C3CC(O)OC(OCC)C3(C)CC12` (stereo not given), the GI50 in the assay on HCC 2998 is 16.8 µM (inactive); in the assay on SK-MEL-2 it was 15.3 µM (inactive); in the assay on MDA-MB-231, 17.5 µM (inactive); in the assay on HOP-92 it was 16 µM (inactive); in the assay on PC-3, 19.9 µM (inactive); with K562, 11.8 µM (inactive). For the same compound, the GI50 in the assay on T47D was 16.6 µM (inactive); in the assay on A549 it was 41.6 µM (inactive); in the assay on SK-MEL-28, 13 µM (inactive); with NCI-H23, 17.1 µM (inactive); with MDA-MB-435, 18 µM (inactive); in the assay with SK-OV-3, 27.5 µM (inactive). Moreover, the GI50 with 786-0 is 10.2 µM (inactive); with EKVX, 23.7 µM (inactive); in the assay with IGROV-1, 19.3 µM (inactive); in the assay on HCT-15 it was 8.38 µM; in the assay on OVCAR-4, 21.7 µM (inactive); in the assay with Hs-578T it was 23.1 µM (inactive). For the same compound, the GI50 in the assay on UACC-257 was 16.3 µM (inactive).
Regarding `CN(C)c1ccc(/C=C(\NC(=O)c2ccccc2)C2=NC(CCC(=O)O)C(=O)O2)cc1` (stereo not given), the GI50 in the assay on HCC 2998, in the assay on SK-MEL-2, with MDA-MB-231, in the assay with HOP-92, with PC-3 and in the assay with K562 was > 50 µM (inactive) throughout. Moreover, the GI50 in the assay on T47D, in the assay on A549, with SK-MEL-28, in the assay with NCI-H23, in the assay on MDA-MB-435 and in the assay with SK-OV-3 was > 50 µM (inactive) each time. In addition, the GI50 with 786-0 is > 50 µM (inactive); with EKVX it was > 50 µM (inactive); in the assay on IGROV-1 it was > 50 µM (inactive); with HCT-15 it was above 50 µM; in the assay with OVCAR-4, > 35.1 µM (inactive); in the assay on Hs-578T it was > 50 µM (inactive). In the assay on UACC-257, the GI50 is > 50 µM (inactive).
As to `Cc1cc(C)nc(NS(=O)(=O)c2ccc(NC(=O)c3ccc4nc5ccccc5c(Nc5ccc(S(=O)(=O)Nc6nc(C)cc(C)n6)cc5)c4c3)cc2)n1`, the GI50 with HCC 2998 is 61.8 µM (inactive); in the assay on SK-MEL-2, 36.2 µM (inactive); in the assay on MDA-MB-231, 20.8 µM (inactive); in the assay on HOP-92, 23 µM (inactive); in the assay with PC-3, 59.7 µM (inactive); with K562 it was 38 µM (inactive). The GI50 with T47D is 46.7 µM (inactive); in the assay with A549 it was > 100 µM (inactive); in the assay on SK-MEL-28, > 100 µM (inactive); with NCI-H23 it was 34 µM (inactive); in the assay on MDA-MB-435 it was > 100 µM (inactive); with SK-OV-3, 59.2 µM (inactive). The GI50 in the assay on 786-0 was > 100 µM (inactive); in the assay with EKVX it was > 100 µM (inactive); in the assay on IGROV-1, 52.5 µM (inactive); in the assay with HCT-15, above 100 µM; in the assay with OVCAR-4, 68.7 µM (inactive); in the assay with Hs-578T it was 69.7 µM (inactive). In the assay on UACC-257, the GI50 was > 100 µM (inactive).
As to `Clc1ccc(Cl)c(/N=N/c2cc3c4c(c2)CCCN4CCC3)c1`, the GI50 in the assay on HCC 2998, in the assay on SK-MEL-2, in the assay on MDA-MB-231, in the assay on HOP-92, in the assay with PC-3 and in the assay on K562 was > 10 µM (inactive) in each case. Moreover, the GI50 in the assay on T47D, in the assay on A549, in the assay with SK-MEL-28, in the assay with NCI-H23, in the assay on MDA-MB-435 and in the assay on SK-OV-3 was > 10 µM (inactive) throughout. Further, the GI50 in the assay with 786-0 was > 10 µM (inactive); with EKVX, > 10 µM (inactive); in the assay with IGROV-1 it was > 10 µM (inactive); in the assay with HCT-15, above 10 µM; in the assay with OVCAR-4 it was > 10 µM (inactive); in the assay on Hs-578T, > 10 µM (inactive). Moreover, the GI50 with UACC-257 was > 10 µM (inactive).
In the case of `COc1ccc(C2C3=C(COC3=O)OC(C)(C)Oc3cc4c(cc32)OCO4)cc1OC` (stereo not given), the GI50 in the assay on HCC 2998 is 78 µM (inactive); in the assay with SK-MEL-2 it was 34.4 µM (inactive); in the assay with MDA-MB-231, 33.8 µM (inactive); with HOP-92, 37.5 µM (inactive); in the assay with PC-3, 28.1 µM (inactive); with K562, 30.8 µM (inactive). For the same compound, the GI50 with T47D is 37.5 µM (inactive); in the assay on A549 it was 36.8 µM (inactive); in the assay with SK-MEL-28, 53.2 µM (inactive); with NCI-H23, 36.8 µM (inactive); with MDA-MB-435, 17.3 µM (inactive); in the assay with SK-OV-3, 50.5 µM (inactive). Besides, the GI50 is 41.9 µM (inactive) with 786-0; 28.5 µM (inactive) with EKVX; 36.9 µM (inactive) with IGROV-1; 38.5 µM with HCT-15; > 53.8 µM (inactive) in the assay with OVCAR-4; 31.6 µM (inactive) in the assay with Hs-578T. The GI50 with UACC-257 was 39.4 µM (inactive).
Take `CC(=O)OCC1=C(C)C[C@H]([C@@H](COC(C)=O)C2CCC3C4C[C@H]5O[C@]56CC=CC(=O)[C@]6(C)C4CC[C@@]32C)OC1=O` (stereo not given in full): the GI50 in the assay with HCC 2998 is 0.573 µM (active); in the assay with SK-MEL-2, 0.716 µM (active); in the assay with MDA-MB-231, 0.376 µM (active); with HOP-92, 0.352 µM (active); with PC-3 it was 0.417 µM (active); in the assay with K562 it was 0.0106 µM (active). Besides, the GI50 with T47D is 0.353 µM (active); with A549 it was 1.39 µM (inactive); with SK-MEL-28, 0.3 µM (active); with NCI-H23, 0.37 µM (active); in the assay with MDA-MB-435, 0.153 µM (active); in the assay on SK-OV-3, 1.79 µM (inactive). Also, the GI50 with 786-0 was 0.19 µM (active); in the assay with EKVX, 0.465 µM (active); in the assay with IGROV-1 it was 0.184 µM (active); in the assay with HCT-15 it was 0.083 µM; in the assay with OVCAR-4 it was 0.359 µM (active); in the assay on Hs-578T, 1 µM (active). In addition, in the assay with UACC-257, the GI50 was 0.302 µM (active).
